Experimental data from ChEMBL document CHEMBL5046282, “Discovery of Brain-Penetrant Glucosylceramide Synthase Inhibitors with a Novel Pharmacophore” (J Med Chem, 2022).
Converted amounts (≈) assume the structure as drawn.

Experiments:
[1] = Oral bioavailability in non-fasted ICR mouse at 5 mg/kg by LC-MS/MS analysis; type: ADME, organism-based; settings: in vivo
[2] = Cardiotoxicity in human iPSC-derived cardiomyocytes assessed as induction of proarrhythmic activity at 30 uM by Fluo-4 dye based fluorescence analysis; type: toxicity; settings: cardiac muscle cell
[3] = Volume of distribution at steady state in non-fasted ICR mouse at 0.5 mg/kg, iv by LC-MS/MS analysis; type: ADME, organism-based; settings: in vivo, read-out: Vdss
[4] = MRT in non-fasted ICR mouse at 5 mg/kg, po by LC-MS/MS analysis; type: ADME, organism-based; settings: in vivo
hERG [5] = target: T1, hERG (Homo sapiens, UniProt Q12809); assay: Inhibition of hERG expressed in CHO-K1 cells at 30 uM by automated whole cell patch clamp assay; type: toxicity, cell-based; settings: CHO-K1 cells expressing hERG
T1 sequence (Q12809 whole entry): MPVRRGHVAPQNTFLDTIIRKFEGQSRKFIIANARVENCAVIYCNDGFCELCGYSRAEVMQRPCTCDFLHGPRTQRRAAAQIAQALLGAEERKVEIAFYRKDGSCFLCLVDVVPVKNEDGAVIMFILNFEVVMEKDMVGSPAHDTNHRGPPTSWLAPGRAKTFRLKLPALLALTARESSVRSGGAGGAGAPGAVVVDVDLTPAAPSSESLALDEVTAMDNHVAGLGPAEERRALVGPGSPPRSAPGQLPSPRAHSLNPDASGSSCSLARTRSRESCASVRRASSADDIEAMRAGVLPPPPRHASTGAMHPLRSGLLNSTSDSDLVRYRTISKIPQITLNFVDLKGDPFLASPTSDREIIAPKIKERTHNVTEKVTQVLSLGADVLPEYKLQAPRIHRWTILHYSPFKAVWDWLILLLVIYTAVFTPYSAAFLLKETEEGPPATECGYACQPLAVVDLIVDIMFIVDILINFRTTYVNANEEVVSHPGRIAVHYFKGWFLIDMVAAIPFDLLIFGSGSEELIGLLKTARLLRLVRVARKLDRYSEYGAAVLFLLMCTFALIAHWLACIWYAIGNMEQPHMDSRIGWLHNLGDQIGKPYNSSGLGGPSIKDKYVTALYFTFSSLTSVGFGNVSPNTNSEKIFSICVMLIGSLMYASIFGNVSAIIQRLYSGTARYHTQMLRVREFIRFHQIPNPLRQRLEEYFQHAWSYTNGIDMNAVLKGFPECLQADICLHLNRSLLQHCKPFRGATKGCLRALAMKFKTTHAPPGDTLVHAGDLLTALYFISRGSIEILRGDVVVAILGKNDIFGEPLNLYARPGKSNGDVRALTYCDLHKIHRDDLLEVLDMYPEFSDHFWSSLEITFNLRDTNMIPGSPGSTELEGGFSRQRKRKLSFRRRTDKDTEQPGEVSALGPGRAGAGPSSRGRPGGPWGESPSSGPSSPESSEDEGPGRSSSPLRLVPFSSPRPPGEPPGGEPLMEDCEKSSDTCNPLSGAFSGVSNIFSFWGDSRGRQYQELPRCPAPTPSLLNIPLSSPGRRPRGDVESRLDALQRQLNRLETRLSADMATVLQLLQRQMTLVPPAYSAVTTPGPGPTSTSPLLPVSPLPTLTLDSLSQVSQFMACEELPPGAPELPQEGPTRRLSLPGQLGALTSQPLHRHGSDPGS

CYP1A2 = target: T2, CYP1A2 (Homo sapiens, UniProt P05177); assay: Inhibition of CYP1A2 in human liver microsomes using tacrine as substrate at 10 uM in presence of NADPH generating system incubated for 10 mins; type: ADME; settings: probe tacrine
T2 sequence (P05177 whole entry): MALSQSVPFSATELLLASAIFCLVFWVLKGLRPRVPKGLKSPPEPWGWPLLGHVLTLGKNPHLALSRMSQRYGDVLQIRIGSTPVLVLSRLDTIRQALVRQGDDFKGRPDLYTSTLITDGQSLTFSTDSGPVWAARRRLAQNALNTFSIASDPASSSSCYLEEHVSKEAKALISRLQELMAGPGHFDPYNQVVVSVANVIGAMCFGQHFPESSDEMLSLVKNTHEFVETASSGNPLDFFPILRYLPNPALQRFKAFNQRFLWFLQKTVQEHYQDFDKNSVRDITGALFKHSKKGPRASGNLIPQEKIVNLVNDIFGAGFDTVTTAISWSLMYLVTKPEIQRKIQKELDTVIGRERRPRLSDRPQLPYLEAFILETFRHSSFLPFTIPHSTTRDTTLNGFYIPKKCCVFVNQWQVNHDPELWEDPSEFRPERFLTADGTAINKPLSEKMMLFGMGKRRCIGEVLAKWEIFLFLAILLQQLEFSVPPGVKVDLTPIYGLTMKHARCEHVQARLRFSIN

[6] = target: Sodium-dependent serotonin transporter (Homo sapiens, UniProt P31645); assay: Inhibition of human SERT; type: toxicity
[7] = Ratio of unbound drug concentration in brain to plasma of non-fasted ICR mouse at 30 mg/kg, po measured after 1 hr by LC-MS/MS analysis; type: ADME, organism-based; settings: read-out: K(p,uu,brain)
CYP2C8 = target: T3, CYP2C8 (Homo sapiens, UniProt P10632); assay: Inhibition of CYP2C8 in human liver microsomes using paclitaxel as substrate at 10 uM in presence of NADPH generating system incubated for 10 mins; type: ADME; settings: probe paclitaxel
T3 sequence (P10632 whole entry): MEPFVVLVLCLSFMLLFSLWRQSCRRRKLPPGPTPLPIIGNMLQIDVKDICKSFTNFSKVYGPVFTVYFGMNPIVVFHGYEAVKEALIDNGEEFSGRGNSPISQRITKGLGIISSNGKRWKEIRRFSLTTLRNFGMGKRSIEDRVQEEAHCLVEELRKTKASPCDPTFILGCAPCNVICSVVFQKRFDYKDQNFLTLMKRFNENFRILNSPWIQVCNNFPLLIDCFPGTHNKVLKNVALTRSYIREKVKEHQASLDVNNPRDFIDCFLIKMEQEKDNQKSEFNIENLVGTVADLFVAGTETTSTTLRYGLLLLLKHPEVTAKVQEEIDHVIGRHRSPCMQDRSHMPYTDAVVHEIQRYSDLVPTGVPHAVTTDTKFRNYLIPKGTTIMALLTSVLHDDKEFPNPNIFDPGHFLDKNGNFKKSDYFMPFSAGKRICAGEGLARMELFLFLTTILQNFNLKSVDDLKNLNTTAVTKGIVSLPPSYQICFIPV

Cav1.2 = Cav1.2 (Homo sapiens, UniProt Q13936); assay: Inhibition of human Cav1.2 expressed in HEK293 cells at 30 uM by automated electrophysiology QPatch HT assay; type: toxicity, cell-based; settings: HEK293 cells expressing Cav1.2
Cav1.2, sequence (Q13936 whole entry): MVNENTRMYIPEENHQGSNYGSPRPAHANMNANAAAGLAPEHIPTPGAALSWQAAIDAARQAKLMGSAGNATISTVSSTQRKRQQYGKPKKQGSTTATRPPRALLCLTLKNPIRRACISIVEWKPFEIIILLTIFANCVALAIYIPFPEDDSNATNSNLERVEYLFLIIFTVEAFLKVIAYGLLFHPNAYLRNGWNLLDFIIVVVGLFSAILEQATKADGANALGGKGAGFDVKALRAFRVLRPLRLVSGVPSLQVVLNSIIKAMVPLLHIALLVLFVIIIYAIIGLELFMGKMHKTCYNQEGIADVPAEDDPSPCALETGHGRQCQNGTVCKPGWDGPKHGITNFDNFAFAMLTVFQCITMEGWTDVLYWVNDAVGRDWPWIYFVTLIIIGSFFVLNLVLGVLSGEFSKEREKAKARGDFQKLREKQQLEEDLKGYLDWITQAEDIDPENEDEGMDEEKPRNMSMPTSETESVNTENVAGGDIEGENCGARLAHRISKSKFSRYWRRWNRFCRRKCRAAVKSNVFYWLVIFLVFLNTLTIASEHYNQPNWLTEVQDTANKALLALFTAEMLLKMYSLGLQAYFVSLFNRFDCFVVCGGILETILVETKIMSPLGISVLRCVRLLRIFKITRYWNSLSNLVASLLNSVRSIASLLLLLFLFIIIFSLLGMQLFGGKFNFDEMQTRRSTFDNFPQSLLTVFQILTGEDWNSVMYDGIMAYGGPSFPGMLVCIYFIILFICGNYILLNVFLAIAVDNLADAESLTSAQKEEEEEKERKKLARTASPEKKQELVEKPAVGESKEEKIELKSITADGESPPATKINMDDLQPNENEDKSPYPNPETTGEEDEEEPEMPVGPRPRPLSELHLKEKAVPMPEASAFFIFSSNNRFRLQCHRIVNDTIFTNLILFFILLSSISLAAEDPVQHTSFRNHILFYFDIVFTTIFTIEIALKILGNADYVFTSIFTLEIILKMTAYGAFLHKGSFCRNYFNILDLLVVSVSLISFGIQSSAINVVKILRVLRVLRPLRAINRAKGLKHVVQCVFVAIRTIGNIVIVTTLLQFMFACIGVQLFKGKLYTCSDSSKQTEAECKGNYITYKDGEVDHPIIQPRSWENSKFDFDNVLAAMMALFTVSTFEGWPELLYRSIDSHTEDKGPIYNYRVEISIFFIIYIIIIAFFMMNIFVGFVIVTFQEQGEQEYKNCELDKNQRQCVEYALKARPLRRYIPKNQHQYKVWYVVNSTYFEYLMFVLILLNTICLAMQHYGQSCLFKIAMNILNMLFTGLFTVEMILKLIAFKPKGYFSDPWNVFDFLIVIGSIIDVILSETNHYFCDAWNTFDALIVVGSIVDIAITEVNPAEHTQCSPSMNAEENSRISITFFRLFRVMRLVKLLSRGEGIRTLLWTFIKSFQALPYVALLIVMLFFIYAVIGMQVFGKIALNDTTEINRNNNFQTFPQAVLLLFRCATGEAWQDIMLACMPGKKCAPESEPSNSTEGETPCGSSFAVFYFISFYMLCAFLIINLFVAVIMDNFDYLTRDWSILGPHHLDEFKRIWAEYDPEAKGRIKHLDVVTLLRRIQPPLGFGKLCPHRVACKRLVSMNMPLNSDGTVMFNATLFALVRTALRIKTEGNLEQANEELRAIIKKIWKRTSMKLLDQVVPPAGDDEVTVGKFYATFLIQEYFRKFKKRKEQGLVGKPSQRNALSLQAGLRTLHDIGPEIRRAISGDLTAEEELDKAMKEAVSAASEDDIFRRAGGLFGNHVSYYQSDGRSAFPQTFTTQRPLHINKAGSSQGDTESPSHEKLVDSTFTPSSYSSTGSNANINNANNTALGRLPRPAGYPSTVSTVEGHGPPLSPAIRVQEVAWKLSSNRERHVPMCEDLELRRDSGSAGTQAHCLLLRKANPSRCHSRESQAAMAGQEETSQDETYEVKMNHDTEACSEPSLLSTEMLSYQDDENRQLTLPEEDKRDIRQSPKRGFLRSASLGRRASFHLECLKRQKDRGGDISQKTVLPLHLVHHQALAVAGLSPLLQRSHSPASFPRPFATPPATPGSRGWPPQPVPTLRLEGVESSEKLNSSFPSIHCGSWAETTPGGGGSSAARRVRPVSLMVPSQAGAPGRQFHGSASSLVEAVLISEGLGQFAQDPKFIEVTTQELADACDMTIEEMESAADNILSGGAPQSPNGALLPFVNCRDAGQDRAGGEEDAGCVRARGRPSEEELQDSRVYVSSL

[8] = Kinetic solubility of the compound in JP2 fluid at pH 6.8 by precipitation method; type: physicochemical; settings: read-out: Kinetic_solubility
[9] = Intrinsic clearance in mouse liver microsomes at 1 uM in presence of NADPH generating system assessed per mg protein by LC-MS/MS analysis; type: ADME, Microsome; settings: read-out: CLH
Nav1.5 = Nav1.5 (Homo sapiens, UniProt Q14524); assay: Inhibition of human Nav1.5 at 30 uM by automated whole cell patch clamp assay; type: toxicity
[10] = Toxicity in Sprague-Dawley rat assessed as reduction in body weight at 30 to 100 mg/kg, po administered once daily for 3 days; type: organism-based; settings: in vivo, 72 h, dose 30-100 mg/kg, time 3 day
[11] = target: Ceramide glucosyltransferase (Homo sapiens, UniProt Q16739); assay: Inhibition of GCS in GBA mutant human fibroblasts assessed as reduction in glucosylceramide level incubated for 4 days by RapdiFire-MS/MS analysis; type: cell-based; settings: fibroblast
Ceramide glucosyltransferase (Homo sapiens, UniProt Q16739), sequence (Q16739 whole entry, looked up, change not shown): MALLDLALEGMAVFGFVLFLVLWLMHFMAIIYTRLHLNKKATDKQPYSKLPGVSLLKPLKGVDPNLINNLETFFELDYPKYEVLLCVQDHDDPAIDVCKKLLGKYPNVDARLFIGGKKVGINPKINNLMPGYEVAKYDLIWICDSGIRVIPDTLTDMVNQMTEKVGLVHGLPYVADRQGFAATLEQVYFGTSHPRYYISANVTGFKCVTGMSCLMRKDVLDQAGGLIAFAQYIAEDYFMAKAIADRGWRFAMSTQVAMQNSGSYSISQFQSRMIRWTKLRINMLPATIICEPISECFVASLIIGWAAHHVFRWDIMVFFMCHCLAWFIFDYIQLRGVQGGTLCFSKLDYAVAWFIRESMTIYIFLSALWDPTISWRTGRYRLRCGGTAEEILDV

[12] = Cardiotoxicity in human iPSC-derived cardiomyocytes assessed as minimum effective concentration required for intracellular calcium transients-mediated proarrhythmic activity by Fluo-4 dye based fluorescence analysis; type: toxicity; settings: cardiac muscle cell
[13] = Unbound drug concentration in brain of non-fasted ICR mouse at 30 mg/kg, po measured after 1 hr by LC-MS/MS analysis; type: ADME, organism-based; settings: in vivo
[14] = AUC in non-fasted ICR mouse at 5 mg/kg, po by LC-MS/MS analysis; type: ADME, organism-based; parameters: dose 5 mg/kg; settings: in vivo
hERG [15] = target: T1, hERG; assay: Inhibition of hERG expressed in CHO-K1 cells at 10 uM incubated for 5 mins by whole cell-automated voltage clamp analysis; type: toxicity, cell-based; settings: CHO-K1 cells expressing hERG
CYP2C9 = CYP2C9 (Homo sapiens, UniProt P11712); assay: Inhibition of CYP2C9 in human liver microsomes using tolbutamide as substrate at 10 uM in presence of NADPH generating system incubated for 10 mins; type: ADME; settings: probe tolbutamide
CYP3A4 = CYP3A4 (Homo sapiens, UniProt P08684); assay: Inhibition of CYP3A4 in human liver microsomes using midazolam as substrate at 10 uM in presence of NADPH generating system incubated for 10 mins; type: ADME; settings: probe midazolam
CYP3A4, sequence (P08684 whole entry): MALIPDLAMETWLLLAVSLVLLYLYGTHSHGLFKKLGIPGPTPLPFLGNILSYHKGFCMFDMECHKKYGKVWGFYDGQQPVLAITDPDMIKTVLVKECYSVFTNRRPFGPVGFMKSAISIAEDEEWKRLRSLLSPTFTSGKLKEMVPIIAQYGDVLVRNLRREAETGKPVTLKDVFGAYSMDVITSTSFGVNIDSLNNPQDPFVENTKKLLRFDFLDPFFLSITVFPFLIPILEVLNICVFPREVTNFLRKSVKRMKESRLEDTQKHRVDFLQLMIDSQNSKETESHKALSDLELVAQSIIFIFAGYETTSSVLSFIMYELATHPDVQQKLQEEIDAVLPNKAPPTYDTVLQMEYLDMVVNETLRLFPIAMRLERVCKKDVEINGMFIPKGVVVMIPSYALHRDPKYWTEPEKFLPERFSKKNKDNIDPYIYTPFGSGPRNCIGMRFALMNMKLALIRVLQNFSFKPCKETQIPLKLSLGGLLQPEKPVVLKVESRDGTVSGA

[16] = 1-Octanol/aqueous buffer partition coefficient, logD of the compound at pH 7.4 by chromatographic method; type: physicochemical
[17] = MRT in non-fasted ICR mouse at 0.5 mg/kg, iv by LC-MS/MS analysis; type: ADME, organism-based; settings: in vivo
[18] = Plasma clearance in non-fasted ICR mouse at 0.5 mg/kg, iv by LC-MS/MS analysis; type: ADME, organism-based
[19] = Efflux ratio of apparent permeability from basolateral to apical side over apical to basolateral side in dog MDCK-MDR1 cells at 1 uM measured after 1 hr by LC-MS/MS analysis; type: ADME, cell-based, Canis lupus familiaris
[20] = Toxicity in C57BL/6J mouse assessed as change in body weight at 30 to 100 mg/kg, po; type: organism-based; settings: in vivo, dose 30-100 mg/kg
[21] = Cmax in non-fasted ICR mouse at 5 mg/kg, po by LC-MS/MS analysis; type: ADME, organism-based; parameters: route oral, dose 5 mg/kg; settings: in vivo
CYP2D6 = CYP2D6 (Homo sapiens, UniProt P10635); assay: Inhibition of CYP2D6 in human liver microsomes using dextromethorphan as substrate at 10 uM in presence of NADPH generating system incubated for 10 mins; type: ADME; settings: probe dextromethorphan
CYP2D6, sequence (P10635 whole entry): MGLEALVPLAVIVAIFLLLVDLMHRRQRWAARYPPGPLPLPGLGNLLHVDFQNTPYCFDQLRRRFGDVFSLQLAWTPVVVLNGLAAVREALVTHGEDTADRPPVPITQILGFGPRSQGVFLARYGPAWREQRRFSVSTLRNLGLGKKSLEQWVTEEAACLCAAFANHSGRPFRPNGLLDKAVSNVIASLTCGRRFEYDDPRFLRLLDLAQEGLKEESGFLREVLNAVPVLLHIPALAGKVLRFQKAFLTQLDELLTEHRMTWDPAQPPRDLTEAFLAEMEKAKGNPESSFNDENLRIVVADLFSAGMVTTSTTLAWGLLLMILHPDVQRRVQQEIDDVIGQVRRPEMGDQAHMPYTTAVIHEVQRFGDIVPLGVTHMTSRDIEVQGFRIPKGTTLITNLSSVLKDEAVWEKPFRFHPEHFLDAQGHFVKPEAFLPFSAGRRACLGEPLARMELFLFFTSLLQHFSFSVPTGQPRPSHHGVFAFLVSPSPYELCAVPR

[22] = target: T4, Ceramide glucosyltransferase (Mus musculus, UniProt O88693); assay: Inhibition of mouse GCS using C8-ceramide and UDP-glucose as substrate incubated for 1 hr by RapidFire mass spectrometry
T4 sequence (O88693 whole entry): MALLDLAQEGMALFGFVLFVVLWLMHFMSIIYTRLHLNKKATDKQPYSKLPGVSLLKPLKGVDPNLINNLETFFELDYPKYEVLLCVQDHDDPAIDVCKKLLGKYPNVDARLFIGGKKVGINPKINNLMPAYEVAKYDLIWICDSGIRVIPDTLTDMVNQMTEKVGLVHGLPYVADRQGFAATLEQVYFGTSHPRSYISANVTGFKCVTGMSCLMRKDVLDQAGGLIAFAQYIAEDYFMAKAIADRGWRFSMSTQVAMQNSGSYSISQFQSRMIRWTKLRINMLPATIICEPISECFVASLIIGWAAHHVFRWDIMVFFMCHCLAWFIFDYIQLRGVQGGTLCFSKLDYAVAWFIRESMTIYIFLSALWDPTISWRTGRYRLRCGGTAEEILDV

bioavailability [1]: 67% | Vd [3]: 1.08 L/kg | MRT [4]: 7.14 h | inhibition at 10 min, 10 µM (CYP1A2): 5.8% | Kp uu at 1 h [7]: 0.11 | inhibition at 10 min, 10 µM (CYP2C8): 22.4% | solubility kinetic [8]: 5.2 µg/mL (≈ 11.3 µM) | microsomal CLint at 1 µM [9]: 6 µL/min/mg | EC50 [11]: 7.6 nM | Drug uptake(free) [13]: 0.24 µM | AUC [14]: 10700 ng·h/mL | inhibition at 10 min, 10 µM (CYP2C9): 37.9% | inhibition at 10 min, 10 µM (CYP3A4): 15.5% | chromatographic logD [16]: 2.48 | MRT [17]: 3.44 h | clearance [18]: 5.23 mL/min/kg | efflux ratio at 1 h, 1 µM [19]: 9.6 | Cmax [21]: 1180 ng/mL | inhibition at 10 min, 10 µM (CYP2D6): 10.9% | IC50 [22]: 51 nM
SMILES: CC(C)(O)c1ccc(N2Cc3c(ccnc3-c3ccc(F)cc3OCC(F)(F)F)C2=O)cc1
Activity [2]: Non-Toxic | inhibition at 30 µM (hERG [5]): 42% | IC50 [6]: 310 nM | inhibition at 30 µM (Cav1.2): 2.4% | inhibition at 30 µM (Nav1.5): 7.1% | Activity [10]: Toxic | MEC [12]: > 30 µM | inhibition at 5 min, 10 µM (hERG [15]): 13.8% | Activity [20]: Non-Toxic
